According to patent publication US20260306526A1, “COMBINATION THERAPY FOR BACTERIAL INFECTIONS COMPRISING ZINC-CHELATOR, BETA-LACTAM ANTIBIOTIC AND SERINE BETA-LACTAMASE INHIBITOR” (priority 2023, published 2026):
Several values for one entry are separate records, joined by “and”; a condition that tells them apart may be missing. Identical values can stand only once.

What was measured:
[1] = system: certain strains of Pseudomonas aeruginosa; settings: with MEM; cited from earlier work
[2] = system: Klebsiella pneumoniae Kpn St147; assay: MIC determination, checkerboard broth microdilution, meropenem + zinc chelator + avibactam (Example 1); format: cell-based
Method: Antimicrobial susceptibility testing (AST) by broth microdilution was performed according to The European Committee on Antimicrobial Susceptibility Testing.
Sensititre™ FINMER meropenem 64-0.03 μg/ml plates (Thermo Fischer Diagnostics custom plates; YFINMER) were modified by adding avibactam to rows 3 to 8 in concentrations of 64, 16, 8, 4, 1 and 0.25 μg/ml, respectively. The zinc chelator was added to the wells of the plate, where applicable. Three plates were made per experiment, one without the zinc chelator (plate 1), one with 16 μg/ml of the zinc chelator (plate 2) and one with 32 μg/ml of the zinc chelator (plate 3). The first row in all plates was used as a positive control for meropenem only, and the second row included the zinc chelator in addition to meropenem (no avibactam added to rows 1 or 2). The zinc chelator was added at the indicated concentration to rows 3-8 of plates 2 and 3.
The effect of the combination of zinc chelator/MEM/avibactam was tested on a clinically isolated Klebsiella pneumoniae Kpn St147 actively constitutionally expressing the two resistance mechanisms NDM-1 and KPC-2 simultaneously. As a negative control, bacteria+meropenem was tested alone. As a positive control, bacteria+MEM+zinc chelator was used. In Table 1 and 2, concentrations (μg/ml) of meropenem are given in the top row left to right and avibactam concentrations (μg/ml) are given top to bottom in column 1. […] A blank cell indicates no growth.
The fractional inhibitory concentration (FIC) is defined as the concentration that kills when used in combination with another agent divided by the concentration that has the same effect when used alone. The FIC index (FICI) for the combination of two agents is the sum of their individual FIC values. […]

[3] = system: Acinetobacter baumannii ST15; assay: MIC determination, fixed concentration of sBLI (Examples 11-18); format: cell-based; settings: NDM-1, OXA-51, ADC-263, caMHB
Method: Antimicrobial susceptibility testing (AST) by broth microdilution (MIC determination) was performed according to The European Committee on Antimicrobial Susceptibility Testing (EUCAST) guidelines (see Reading guide for broth microdilution Version 5.0, 2024: https://www.eucast.org).
For combinations containing meropenem as the antibiotic, Sensititre™ FINMER meropenem 64-0.03 μg/mL plates (Thermo Fischer Diagnostics custom plates; YFINMER) were used in most of the experiments. For other antibiotics (and for meropenem whenever a higher start concentration than 64 μg/mL was needed) sterile clear round bottom polystyrene (non-treated) 96-well microplates (Corning 3788) were used for making serial two-fold dilutions of the antibiotic in cation-adjusted Mueller Hinton II broth (caMHB; Thermo Scientific, T3462, containing 29.4 μM Zn^2+ or MILLIPORE, 90922-500G, containing 5.6 μM Zn^2+), across the columns of the microtiter plate (128-0.06 μg/mL; columns 1-12).
The checkerboard plates were all modified by adding a serine β-lactamase inhibitor (sBLI) at a fixed concentration of 16 μg/mL. Additionally, the zinc chelator was added at various fixed concentrations. Samples were mixed so that all plates contained a control containing antibiotic alone (no sBLI, no zinc chelator), a sample containing antibiotic and sBLI (double combination; no zinc chelator), and a sample containing antibiotic, sBLI and zinc chelator (triple combination). All test wells used in each plate contained growth medium (caMHB), and inoculated bacteria at a final inoculum between 3-7×10^5 CFU/mL. […] Synergy for the triple combination (antibiotic, sBLI, and zinc chelator) was defined as when the MIC in any of the rows containing the zinc chelator in combination with antibiotic and sBLI (triple combination), was lower than for antibiotic alone and lower than for the antibiotic and sBLI double combination.
(§1) An X in rows 1~4 in the table indicates growth of the bacterial inoculum, while a blank cell indicates no growth. Concentrations (μg/mL) of MEM are given in row 0. SUL and the zinc chelator were added in fixed concentrations (SUL at 16 μg/mL in rows 2-4, zinc chelator at 16 μg/mL in row 3 and at 8 μg/mL in row 4). As a control, the effect of MEM alone was tested (row 1). All wells contained bacterial growth medium (caMHB, 29.4 μM Zn^2+) and were inoculated with the test bacterium. The grey cells indicate the meropenem MIC.
as §1, with “AMOX” for “MEM”, “amoxicillin” for “meropenem”
Two technical replicates were performed for each sample. An X in rows 1-8 in the table indicates growth of the bacterial inoculum, while a blank cell indicates no growth. Concentrations (μg/mL) of AMP are given in row 0. SUL and the zinc chelator were added in fixed concentrations (SUL at 16 μg/mL in rows 3-8, zinc chelator at 16 μg/mL in rows 5-6 and at 8 μg/mL in rows 7-8). As a control, the effect of AMP alone was tested (rows 1-2). All wells contained bacterial growth medium (caMHB, 29.4 μM Zn^2+) and were inoculated with the test bacterium. […]

In the case of `CN(C[C@H](O)[C@@H](O)[C@H](O)[C@H](O)CO)C(=O)c1ccc(CN(Cc2ccccn2)Cc2ccccn2)nc1` [zinc chelator], the effect of combination [1] is given as “poor effect”, the “FICI Zinc Chelator” value ([2]; zinc chelator 16 μg/mL, MEM/avibactam 0.5/0.25 (r9), 0.25/1 (r10), 0.25/4 (r11), 0.06/8 (r12) μg/mL) is given as 0.008 and the “FICI Zinc Chelator” value ([2]; zinc chelator 32 μg/mL, MEM/avibactam 0.5/0.25 (r13), 0.12/1 (r14), 0.06/4 (r15), 0.06/8 (r16) μg/mL) is given as 0.016. For the same compound, the “amplification of the inhibitory effect” value ([2]; zinc chelator at 16 μg/ml with MEM + avibactam) was “about 64 fold”, the “Synergy with the zinc chelator observed at concentration” value (from here on “Synergy with the zinc chelator observed”) ([3]; Example 11, with MEM and SUL 16 μg/mL, 29.4 μM Zn2+) was 16 µg/mL and the “Synergy with the zinc chelator observed” value ([3]; Example 12, with AMOX and SUL 16 μg/mL, 29.4 μM Zn2+) was 16 µg/mL. For the same compound, the “Synergy with the zinc chelator observed” value ([3]; Example 13, with AMP and SUL 16 μg/mL, 29.4 μM Zn2+) was 16 µg/mL, the “Synergy with the zinc chelator observed” value ([3]; Example 14, with PIP and TAZ 16 μg/mL, 29.4 μM Zn2+) was 16 µg/mL and 8 µg/mL and the “Synergy with the zinc chelator observed” value ([3]; Example 18, with PIP and TAZ 16 μg/mL, 5.6 μM Zn2+) was 16 µg/mL and 8 µg/mL.
